Where a name gives a salt, the structure may show the parent alone. Read-outs that look alike come from different tables or passages of the source.
What was measured:
Type in all cases: cell-based
[1] = system: SMN2 CJ mRNA; test: Gene panel canonical junction qPCR assay, SMN2; settings: decrease in CJ mRNA levels, gene panel; read-out: SMN2 IC50
Protocol: (§1) The expression of a target mRNA was measured by detecting the formation of an exon-exon junction in the canonical transcript (CJ). A compound mediated exon-inclusion event was detected by observing an increase in formation of a new junction with an alternative exon (AJ). Real-time qPCR assays were used to detect these splicing switches and interrogate the potency of various compounds towards different target genes. A high-throughput real time quantitative PCR (RT-qPCR) assay was developed to measure these two isoforms of the mRNA (CJ and AJ) for an exemplary gene, HTT, together with a control housekeeping gene, GAPDH or GUSB or PPIA, used for normalization. Briefly, the A673 or K562 cell line was treated with various compounds described herein (e.g., compounds of Formula (I)). After treatment, the levels of the HTT mRNA targets were determined from each sample of cell lysate by cDNA synthesis followed by qPCR. The A673 cell line was cultured in DMEM with 10% FBS. Cells were diluted with full growth media and plated in a 96-well plate (15,000 cells in 100 ul media per well). The plate was incubated at 37° C. with 5% CO2 for 24 hours to allow cells to adhere. An 11-point 3-fold serial dilution of the compounds was made in DMSO then diluted in media in an intermediate plate. Compounds were transferred from the intermediate plate to the cell plate with the top dose at a final concentration of 10 uM in the well. Final DMSO concentration was kept at or below 0.25%. The cell plate was returned to the incubator at 37° C. with 5% CO2 for an additional 24 hours. The K562 cell line was cultured in IMDM with 10% FBS. For K562, cells were diluted with full growth media and plated in either a 96-well plate (50,000 cells in 50 uL media per well) or a 384-well plate (8,000-40,000 cells in 45 uL media per well). An 11-point 3-fold serial dilution of the compounds were made in DMSO then diluted in media in an intermediate plate. Compound was transferred from the intermediate plate to the cell plate with the top dose at a final concentration of 10 uM in the well. Final DMSO concentration was kept at or below 0.25%. Final volume was 100 uL for 96-well plate and 50 uL for 384-well plate. The cell plate was then placed in an incubator at 37° C. with 5% CO2 for 24 hours. The cells were then gently washed with 50 uL-100 uL cold PBS before proceeding to addition of lysis buffer. 30 uL-50 uL of room temperature lysis buffer with DNAse I (and optionally RNAsin) was added to each well. Cells were shaken/mixed thoroughly at room temperature for 5-10 minutes for lysis to take place and then 3 uL-5 uL of room temperature stop solution was added and wells were shaken/mixed again. After 2-5 minutes, the cell lysate plate was transferred to ice for RT-qPCR reaction setup. The lysates could also be frozen at −80° C. for later use. In some cases, a direct lysis buffer was used. An appropriate volume of 3× lysis buffer (10 mM Tris, 150 mM NaCl, 1.5%-2.5% Igepal and 0.1-1 U/uL RNAsin, pH 7.4) was directly added to either K562 or A673 cells in media and mixed by pipetting 3 times. The plates were then incubated at room temperature with shaking/rocking for 20-50 minutes to allow for lysis to take place. After this time, the cell lysate plate was transferred to ice to set up for the RT-qPCR reactions. The lysates could also be frozen at −80° C. for later use. To set up 10 uL RT-qPCR reactions, cell lysates were transferred to 384-well qPCR plates containing the master mix according to the table below. The plates were sealed, gently vortexed, and spun down before the run. The volumes were adjusted accordingly in some instances where the reaction was carried in 20 uL. The table below summarizes the components of the RT-qPCR reactions: The RT-qPCR reaction was performed using a QuantStudio (ThermoFisher) under the following fast cycling conditions. All samples and standards were analyzed at least in duplicate.

[2] = system: HTT CJ mRNA; test: Gene panel canonical junction qPCR assay, HTT; settings: decrease in CJ mRNA levels, gene panel; read-out: HTT IC50
Protocol: as §1

[3] = system: HTT mRNA; test: Splicing assay (RT-qPCR) monitoring HTT canonical junction (CJ) and alternative junction (AJ) mRNA isoforms; settings: A673 or K562 cells, 24 h treatment, top dose 10 uM
Protocol: Compounds described herein were used to modulate RNA transcript abundance in cells. The expression of a target mRNA was measured by detecting the formation of an exon-exon junction in the canonical transcript (CJ). A compound mediated exon-inclusion event was detected by observing an increase in formation of a new junction with an alternative exon (AJ). Real-time qPCR assays were used to detect these splicing switches and interrogate the potency of various compounds towards different target genes. A high-throughput real time quantitative PCR (RT-qPCR) assay was developed to measure these two isoforms of the mRNA (CJ and AJ) for an exemplary gene, HTT, together with a control housekeeping gene, GAPDH or GUSB or PPIA, used for normalization. Briefly, the A673 or K562 cell line was treated with various compounds described herein (e.g., compounds of Formula (I)). After treatment, the levels of the HTT mRNA targets were determined from each sample of cell lysate by cDNA synthesis followed by qPCR.
• Cells-to-CT 1-step kit: ThermoFisher A25602, Cells-to-CT lysis reagent: ThermoFisher 4391851C, TaqMan™ Fast Virus 1-Step Master Mix: ThermoFisher 4444436 • GAPDH: VIC-PL, ThermoFisher 4326317E (Assay: Hs99999905_m1)—used for K562/suspension cell lines • GUSB: VIC-PL, ThermoFisher 4326320E (Assay: Hs99999908_m1)—used for K562/suspension cell lines • PPIA: VIC-PL, ThermoFisher 4326316E (Assay: Hs99999904_m1) — used for A673/adherent cell lines
The A673 cell line was cultured in DMEM with 10% FBS. Cells were diluted with full growth media and plated in a 96-well plate (15,000 cells in 100 ul media per well). The plate was incubated at 37° C. with 5% CO2 for 24 hours to allow cells to adhere. An 11-point 3-fold serial dilution of the compounds was made in DMSO then diluted in media in an intermediate plate. Compounds were transferred from the intermediate plate to the cell plate with the top dose at a final concentration of 10 uM in the well. Final DMSO concentration was kept at or below 0.25%. The cell plate was returned to the incubator at 37° C. with 5% CO2 for an additional 24 hours.
The K562 cell line was cultured in IMDM with 10% FBS. For K562, cells were diluted with full growth media and plated in either a 96-well plate (50,000 cells in 50 uL media per well) or a 384-well plate (8,000-40,000 cells in 45 uL media per well). An 11-point 3-fold serial dilution of the compounds were made in DMSO then diluted in media in an intermediate plate. Compound was transferred from the intermediate plate to the cell plate with the top dose at a final concentration of 10 uM in the well. Final DMSO concentration was kept at or below 0.25%. Final volume was 100 uL for 96-well plate and 50 uL for 384-well plate. The cell plate was then placed in an incubator at 37° C. with 5% CO2 for 24 hours.
The cells were then gently washed with 50 uL-100 uL cold PBS before proceeding to addition of lysis buffer. 30 uL-50 uL of room temperature lysis buffer with DNAse I (and optionally RNAsin) was added to each well. Cells were shaken/mixed thoroughly at room temperature for 5-10 minutes for lysis to take place and then 3 uL-5 uL of room temperature stop solution was added and wells were shaken/mixed again. After 2-5 minutes, the cell lysate plate was transferred to ice for RT-qPCR reaction setup. The lysates could also be frozen at −80° C. for later use.
In some cases, a direct lysis buffer was used. An appropriate volume of 3× lysis buffer (10 mM Tris, 150 mM NaCl, 1.5%-2.5% Igepal and 0.1-1 U/uL RNAsin, pH 7.4) was directly added to either K562 or A673 cells in media and mixed by pipetting 3 times. The plates were then incubated at room temperature with shaking/rocking for 20-50 minutes to allow for lysis to take place. After this time, the cell lysate plate was transferred to ice to set up for the RT-qPCR reactions. The lysates could also be frozen at −80° C. for later use. […]

[4] = system: Target C CJ mRNA; test: Gene panel canonical junction qPCR assay, Target C; settings: decrease in CJ mRNA levels, gene panel; read-out: Target C IC50
Protocol: as §1

[5] = decrease in CJ mRNA (50% response), read-out: HTT CJ AC50
[6] = increase in AJ mRNA (50% response), read-out: HTT AJ AC50

SMILES | IC50 [1] [µM] | IC50 [2] [µM] | IC50 [4] [µM] | AC50 [3, 5] [µM] | AC50 [3, 6] [µM]
Cn1cc2cc(-n3cnc4cc(C5=CCNCC5)ccc4c3=O)ccc2n1 [Compound 158, 3-(2-methyl-2H-indazol-5-yl)-7-(1,2,3,6-tetrahydropyridin-4-yl)quinazolin-4(3H)-one] | > 10 | > 10 |  | > 10 | > 10
Cc1cc(-c2ccc3c(=O)n(C4CCN(C)CC4)cnc3n2)cc2cn(C)nc12 [Compound 173, 7-(2,7-dimethyl-2H-indazol-5-yl)-3-(1-methylpiperidin-4-yl)pyrido[2,3-d]pyrimidin-4(3H)-one] | 1 to 10 | > 10 |  | > 10 | > 10
Cc1cn2nc(-c3ccc4c(=O)n([C@H]5CCN[C@H](C)C5)ncc4c3)cc(C)c2n1 [Compound 273] |  | < 0.1 | 0.1 to 1 | < 0.1 | 0.1 to 1
Cc1cn2cc(-c3ccc4c(=O)n(C5CCNCC5)ncc4c3)nc2c(C)n1 [Compound 258] |  |  |  | 1 to 10 | > 10
Cc1cn2nc(-c3ccc4c(c3F)CCN(C3CCNCC3)C4=O)cc(C)c2n1 [Compound 188, 6-{2,8-dimethylimidazo[1,2-b]pyridazin-6-yl}-5-fluoro-2-(piperidin-4-yl)-3,4-dihydroisoquinolin-1-one] |  |  |  | 1 to 10 | 1 to 10
Cc1cn2nc(-c3ccc4c(c3)CCN(C3CCNCC3)C4=O)cc(C)c2n1 [Compound 185, 6-[2,8-dimethylimidazo [1,2-b]pyridazin-6-yl]-2-(piperidin-4-yl) -3,4-dihydroisoquinolin-1-one] |  |  |  | 0.1 to 1 | 1 to 10
CC[C@@H]1C[C@@H](n2ncc3cc(-c4cc(C)c5nc(C)cn5n4)ccc3c2=O)CCN1 [Compound 305, 6-{2,8-dimethylimidazo[1,2-b]pyridazin-6-yl}-2-[(2R,4S)-2-ethylpiperidin-4-yl]phthalazin-1-one] |  | 0.1 to 1 | 0.1 to 1 | 0.1 to 1 | 1 to 10
CN1CC=C(c2ccc3c(=O)n(-c4ccc5nn(C)cc5c4)cnc3c2)CC1 [Compound 159, 7-(1-methyl-1,2,3,6-tetrahydropyridin-4-yl)-3-(2-methyl-2H-indazol-5-yl)quinazolin-4(3H)-one] | > 10 | > 10 |  | > 10 | > 10
Cc1cn2nc(-c3ccc4c(=O)n(C5CCNCC5)ncc4c3)cc(C)c2n1 [Compound 186, 6-[2,8-dimethylimidazo[1,2-b]pyridazin-6-yl]-2-(piperidin-4-yl)phthalazin-1-one] |  |  |  | < 0.1 | < 0.1

More lines, main results first:

IC50 [1] [µM] | IC50 [2] [µM] | IC50 [4] [µM] | SMILES | AC50 [3, 5] [µM] | AC50 [3, 6] [µM]
< 0.1 | 0.1 to 1 |  | Cc1cc(-c2ccc3c(=O)n(C4CCNCC4)cnc3c2)cc2cn(C)nc12 [Compound 174, 7-(2,7-dimethyl-2H-indazol-5-yl)-3-(piperidin-4-yl)quinazolin-4(3H)-one] | 0.1 to 1 | 0.1 to 1
0.1 to 1 | 1 to 10 |  | Cc1cc(-c2ccc3c(=O)n(C4CCN(C)CC4)cnc3c2)cc2cn(C)nc12 [Compound 156] | 1 to 10 | 1 to 10
> 10 | > 10 |  | Cn1cc2cc(-n3cnc4cc(NC5CCNCC5)ccc4c3=O)ccc2n1 [Compound 162] | > 10 | > 10
1 to 10 | > 10 |  | Cn1cc2cc(-n3cnc4cc(N5CCNCC5)ccc4c3=O)ccc2n1 [Compound 153, 3-(2-methyl-2H-indazol-5-yl)-7-(piperazin-1-yl)quinazolin-4(3H)-one] | > 10 | > 10
1 to 10 | > 10 |  | Cc1cc(-c2ccc3c(=O)n(C4CC(C)(C)NC(C)(C)C4)cnc3c2)cc2cn(C)nc12 [Compound 157, 7-(2,7-dimethyl-2H-indazol-5-yl)-3-(2,2,6,6-tetramethylpiperidin-4-yl)quinazolin-4(3H)-one hydrochloride] | > 10 | > 10
 | > 10 | > 10 | Cc1cn2nc(-c3ccc4c(=O)n(C5CCOCC5)ncc4c3)cc(C)c2n1 [Compound 275] |  | 
0.1 to 1 | > 10 |  | Cc1cc(-c2ccc3nc(N4CCN(C)CC4)[nH]c(=O)c3c2)cc2cn(C)nc12 [Compound 165, 6-(2,7-dimethyl-2H-indazol-5-yl)-2-(4-methylpiperazin-1-yl)quinazolin-4(3H)-one] | > 10 | > 10

From patent US20230159496A1, “COMPOUNDS AND METHODS FOR MODULATING SPLICING” (REMIX THERAPEUTICS INC., priority 2020, published 2023)
